Experimental data from US8895756B2, “Bendamustine pharmaceutical compositions” (priority 2005, dated 2014).

Assay: HPLC stability of bendamustine (15 mg/mL, mannitol 25.5 mg/mL) in alcohol/water solutions at 5° C.
Type: physicochemical
Settings: for HP1 (%) / Purity (% Area) / Dimer (%): 5° C.
Description: A sample of each formulation was analyzed by HPLC after 0, 3, 6 and 24 hours when stored at 5° C.

[1] = 20% Butanol (2 layers, vortexed), 0 hours
[2] = 20% Butanol (2 layers, vortexed), 3 hours
[3] = 20% Butanol (2 layers, vortexed), 6 hours
[4] = 20% Butanol (2 layers, vortexed), 24 hours
[5] = 30% Butanol (2 layers, vortexed), 0 hours
[6] = 30% Butanol (2 layers, vortexed), 3 hours
[7] = 30% Butanol (2 layers, vortexed), 6 hours
[8] = 30% Butanol (2 layers, vortexed), 24 hours

**Q.** Which results are given for `Cl.Cn1c(CCCC(=O)O)nc2cc(N(CCCl)CCCl)ccc21` [bendamustine, 4-{5-[Bis(2-chloroethyl)amino]-1-methyl-2-benzimidazolyl}butyric acid]?
**A.** HP1 (%) (10% n-Propanol, 6 hours): 0.70%; Purity (% Area) (10% n-Propanol, 6 hours): 98.92 % Area; Dimer (%) (10% n-Propanol, 24 hours): 0.28%; HP1 (%) (10% n-Propanol, 24 hours): 1.83%; Purity (% Area) (10% n-Propanol, 24 hours): 97.67 % Area; Dimer (%) [1]: 0.10%; HP1 (%) [1]: 0.23%; Purity (% Area) [1]: 99.54 % Area; Dimer (%) [2]: 0.11%; HP1 (%) [2]: 0.31%; Purity (% Area) [2]: 99.45 % Area; Dimer (%) [3]: 0.11%; HP1 (%) [3]: 0.40%; Purity (% Area) [3]: 99.30 % Area; Dimer (%) [4]: 0.14%; HP1 (%) [4]: 0.91%; Purity (% Area) [4]: 98.81 % Area; Dimer (%) (20% Ethanol, 0 hours): 0.10%; HP1 (%) (20% Ethanol, 0 hours): 0.22%; Purity (% Area) (20% Ethanol, 0 hours): 99.54 % Area; Dimer (%) (20% Ethanol, 3 hours): 0.11%; HP1 (%) (20% Ethanol, 3 hours): 0.30%; Purity (% Area) (20% Ethanol, 3 hours): 99.45 % Area; Dimer (%) (20% Ethanol, 6 hours): 0.11%; HP1 (%) (20% Ethanol, 6 hours): 0.39%; Purity (% Area) (20% Ethanol, 6 hours): 99.36 % Area; Dimer (%) (20% Ethanol, 24 hours): 0.15%; HP1 (%) (20% Ethanol, 24 hours): 0.96%; Purity (% Area) (20% Ethanol, 24 hours): 98.61 % Area; Dimer (%) (20% Iso-propanol, 0 hours): 0.11%; HP1 (%) (20% Iso-propanol, 0 hours): 0.21%; Purity (% Area) (20% Iso-propanol, 0 hours): 99.49 % Area; Dimer (%) (20% Iso-propanol, 3 hours): 0.12%; HP1 (%) (20% Iso-propanol, 3 hours): 0.31%; Purity (% Area) (20% Iso-propanol, 3 hours): 99.39 % Area; Dimer (%) (20% Iso-propanol, 6 hours): 0.13%; HP1 (%) (20% Iso-propanol, 6 hours): 0.42%; Purity (% Area) (20% Iso-propanol, 6 hours): 99.22 % Area; Dimer (%) (20% Iso-propanol, 24 hours): 0.17%; HP1 (%) (20% Iso-propanol, 24 hours): 1.04%; Purity (% Area) (20% Iso-propanol, 24 hours): 98.61 % Area; Dimer (%) (20% Methanol, 0 hours): 0.11%; HP1 (%) (20% Methanol, 0 hours): 0.22%; Purity (% Area) (20% Methanol, 0 hours): 99.56 % Area; Dimer (%) (20% Methanol, 3 hours): 0.11%; HP1 (%) (20% Methanol, 3 hours): 0.38%; Purity (% Area) (20% Methanol, 3 hours): 99.31 % Area; Dimer (%) (20% Methanol, 6 hours): 0.12%; HP1 (%) (20% Methanol, 6 hours): 0.50%; Purity (% Area) (20% Methanol, 6 hours): 98.99 % Area; Dimer (%) (20% Methanol, 24 hours): 0.16%; HP1 (%) (20% Methanol, 24 hours): 1.15%; Purity (% Area) (20% Methanol, 24 hours): 98.31 % Area; Dimer (%) (20% Tert-butanol, 0 hours): 0.11%; HP1 (%) (20% Tert-butanol, 0 hours): 0.17%; Purity (% Area) (20% Tert-butanol, 0 hours): 99.59 % Area; Dimer (%) (20% Tert-butanol, 3 hours): 0.11%; HP1 (%) (20% Tert-butanol, 3 hours): 0.29%; Purity (% Area) (20% Tert-butanol, 3 hours): 99.48 % Area; Dimer (%) (20% Tert-butanol, 6 hours): 0.12%; HP1 (%) (20% Tert-butanol, 6 hours): 0.40%; Purity (% Area) (20% Tert-butanol, 6 hours): 99.35 % Area; Dimer (%) (20% Tert-butanol, 24 hours): 0.20%; HP1 (%) (20% Tert-butanol, 24 hours): 1.27%; Purity (% Area) (20% Tert-butanol, 24 hours): 98.35 % Area; Dimer (%) (20% n-Propanol, 0 hours): 0.13%; HP1 (%) (20% n-Propanol, 0 hours): 0.33%; Purity (% Area) (20% n-Propanol, 0 hours): 99.45 % Area; Dimer (%) (20% n-Propanol, 3 hours): 0.13%; HP1 (%) (20% n-Propanol, 3 hours): 0.26%; Purity (% Area) (20% n-Propanol, 3 hours): 99.42 % Area; Dimer (%) (20% n-Propanol, 6 hours): 0.14%; HP1 (%) (20% n-Propanol, 6 hours): 0.39%; Purity (% Area) (20% n-Propanol, 6 hours): 99.29 % Area; Dimer (%) (20% n-Propanol, 24 hours): 0.24%; HP1 (%) (20% n-Propanol, 24 hours): 0.97%; Purity (% Area) (20% n-Propanol, 24 hours): 98.60 % Area; HP1 (30% (v/v) TBA, stored at 5° C. for up to 24 hours): about 0.4%; Dimer (%) [5]: 0.10%; HP1 (%) [5]: 0.24%; Purity (% Area) [5]: 99.55 % Area; Dimer (%) [6]: 0.10%; HP1 (%) [6]: 0.29%; Purity (% Area) [6]: 99.40 % Area; Dimer (%) [7]: 0.11%; HP1 (%) [7]: 0.37%; Dimer (%) [8]: 0.12%; HP1 (%) [8]: 0.74%; Dimer (%) (30% Ethanol, 0 hours): 0.10%; HP1 (%) (30% Ethanol, 0 hours): 0.15%; Purity (% Area) (30% Ethanol, 0 hours): 99.62 % Area; Dimer (%) (30% Ethanol, 3 hours): 0.11%; HP1 (%) (30% Ethanol, 3 hours): 0.21%; Purity (% Area) (30% Ethanol, 3 hours): 99.56 % Area; Dimer (%) (30% Ethanol, 6 hours): 0.12%; HP1 (%) (30% Ethanol, 6 hours): 0.24%; Purity (% Area) (30% Ethanol, 6 hours): 99.52 % Area; Dimer (%) (30% Ethanol, 24 hours): 0.12%; HP1 (%) (30% Ethanol, 24 hours): 0.45%; Purity (% Area) (30% Ethanol, 24 hours): 99.21 % Area; Dimer (%) (30% Iso-propanol, 0 hours): 0.10%; HP1 (%) (30% Iso-propanol, 0 hours): 0.15%; Purity (% Area) (30% Iso-propanol, 0 hours): 99.56 % Area; Dimer (%) (30% Iso-propanol, 3 hours): 0.12%; HP1 (%) (30% Iso-propanol, 3 hours): 0.20%; Purity (% Area) (30% Iso-propanol, 3 hours): 99.47 % Area; Dimer (%) (30% Iso-propanol, 6 hours): 0.11%; HP1 (%) (30% Iso-propanol, 6 hours): 0.24%; Purity (% Area) (30% Iso-propanol, 6 hours): 99.40 % Area; Dimer (%) (30% Iso-propanol, 24 hours): 0.14%; HP1 (%) (30% Iso-propanol, 24 hours): 0.52%; Purity (% Area) (30% Iso-propanol, 24 hours): 99.15 % Area; Dimer (%) (30% Methanol, 0 hours): 0.10%; HP1 (%) (30% Methanol, 0 hours): 0.18%; Purity (% Area) (30% Methanol, 0 hours): 99.59 % Area; Dimer (%) (30% Methanol, 3 hours): 0.11%; HP1 (%) (30% Methanol, 3 hours): 0.27%; Purity (% Area) (30% Methanol, 3 hours): 99.43 % Area; Dimer (%) (30% Methanol, 6 hours): 0.11%; HP1 (%) (30% Methanol, 6 hours): 0.34%; Purity (% Area) (30% Methanol, 6 hours): 99.25 % Area; Dimer (%) (30% Methanol, 24 hours): 0.13%; HP1 (%) (30% Methanol, 24 hours): 0.76%; Purity (% Area) (30% Methanol, 24 hours): 98.65 % Area; Dimer (%) (30% Tert-butanol, 0 hours): 0.10%; HP1 (%) (30% Tert-butanol, 0 hours): 0.13%; Purity (% Area) (30% Tert-butanol, 0 hours): 99.63 % Area; Dimer (%) (30% Tert-butanol, 3 hours): 0.10%; HP1 (%) (30% Tert-butanol, 3 hours): 0.16%; Purity (% Area) (30% Tert-butanol, 3 hours): 99.60 % Area; Dimer (%) (30% Tert-butanol, 6 hours): 0.11%; HP1 (%) (30% Tert-butanol, 6 hours): 0.18%; Purity (% Area) (30% Tert-butanol, 6 hours): 99.58 % Area; Dimer (%) (30% Tert-butanol, 24 hours): 0.12%; HP1 (%) (30% Tert-butanol, 24 hours): 0.34%; Purity (% Area) (30% Tert-butanol, 24 hours): 99.42 % Area; Dimer (%) (30% n-Propanol, 0 hours): 0.13%; HP1 (%) (30% n-Propanol, 0 hours): 0.15%; Purity (% Area) (30% n-Propanol, 0 hours): 99.53 % Area; Dimer (%) (30% n-Propanol, 3 hours): 0.15%; HP1 (%) (30% n-Propanol, 3 hours): 0.15%; Purity (% Area) (30% n-Propanol, 3 hours): 99.51 % Area; Dimer (%) (30% n-Propanol, 6 hours): 0.11%; HP1 (%) (30% n-Propanol, 6 hours): 0.20%; Purity (% Area) (30% n-Propanol, 6 hours): 99.44 % Area; Dimer (%) (30% n-Propanol, 24 hours): 0.17%; HP1 (%) (30% n-Propanol, 24 hours): 0.36%; Purity (% Area) (30% n-Propanol, 24 hours): 99.27 % Area
